Measurements: the NIST ThermoML archive (doi:10.1016/j.tca.2008.09.005)
Numbers after ± are expanded uncertainties.

What was measured:
[1] = 298.15 K, 101.33 kPa, Liquid
[2] = refractive index (Na D-line) (dimensionless); conditions: 298.15 K; 101.33 kPa; Liquid; Standard Abbe refractometry

| SMILES | electrical conductivity [1] | mass density ([1]; Vibrating tube method) | refractive index [2] |
| --- | --- | --- | --- |
| O [water] | 1.3e-05 ± 1e-06 S/m |  |  |
| CN1CCN(C)C1=O [1,3-dimethyl-2-imidazolidinone] |  | 1052.23 ± 1.2 kg/m3 | 1.4713 ± 0.0008 |
